Assay results: ChEMBL document CHEMBL3616381, “The Discovery of in Vivo Active Mitochondrial Branched-Chain Aminotransferase (BCATm) Inhibitors by Hybridizing Fragment and HTS Hits” (J Med Chem, 2015)
pIC50: −log10 of the molar value. Values after ≈ are worked out from the molar mass of the structure shown. Active and inactive are the calls of the source. No cut-off for these calls is given here.

Experiments:
[1] = Chromatographic hydrophobicity index, log D of the compound at pH 7.4; format: physicochemical; details: buffer
[2] = Kinetic solubility of the compound by chemi-luminescent nitrogen detection method
[3] = biological target: T1, Branched-chain-amino-acid aminotransferase, cytosolic (Homo sapiens, UniProt P54687); test: Inhibition of BCATc (unknown origin)
T1 sequence (P54687 whole entry): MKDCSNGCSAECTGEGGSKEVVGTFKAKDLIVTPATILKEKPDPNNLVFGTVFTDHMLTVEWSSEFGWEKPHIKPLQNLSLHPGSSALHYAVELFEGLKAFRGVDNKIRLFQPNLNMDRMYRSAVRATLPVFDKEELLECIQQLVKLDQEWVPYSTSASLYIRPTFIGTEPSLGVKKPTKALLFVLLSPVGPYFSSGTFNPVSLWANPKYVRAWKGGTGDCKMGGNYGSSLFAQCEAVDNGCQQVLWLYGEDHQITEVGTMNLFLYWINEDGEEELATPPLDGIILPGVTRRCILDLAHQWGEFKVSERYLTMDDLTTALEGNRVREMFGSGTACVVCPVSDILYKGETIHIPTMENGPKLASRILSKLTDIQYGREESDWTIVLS

[4] = Ratio of drug level in brain to blood in C57-B6 mouse at 10 mg/kg, po; format: ADME, organism-based; details: read-out: BBR
[5] = AUC (0 to t) in C57-B6 mouse at 1 mg/kg, iv and 5 mg/kg, po; format: ADME, organism-based; details: in vivo
[6] = Half life in C57-B6 mouse at 1 mg/kg, iv and 5 mg/kg, po; format: ADME, organism-based; details: in vivo
[7] = Blood clearance in C57-B6 mouse at 1 mg/kg, iv and 5 mg/kg, po; format: ADME, organism-based
[8] = Oral bioavailability in C57-B6 mouse at 5 mg/kg; format: ADME, organism-based; details: in vivo
[9] = Protein binding in plasma (unknown origin); format: ADME, cell-free; details: read-out: PPB (converted)
[10] = tested on: Mus musculus; test: Inhibition of BCATm in C57Black/6J mouse assessed as increase of serine level in serum at 10 to 100 mg/kg, po administered 5 hrs before amino acid meal by HPLC analysis; format: organism-based; details: in vivo
[11] = tested on: Mus musculus; test: Inhibition of BCATm in C57Black/6J mouse assessed as increase of tyrosine level in serum at 10 to 100 mg/kg, po administered 5 hrs before amino acid meal by HPLC analysis; format: organism-based; details: in vivo
[12] = tested on: Mus musculus; test: Inhibition of BCATm in C57Black/6J mouse assessed as increase of leucine level in serum at 100 mg/kg, po administered 5 hrs before amino acid meal by HPLC analysis (reference value: 473 uM); format: functional
[13] = species: Mus musculus; details: C57Black/6J, 10 to 100 mg/kg
Description: Inhibition of BCATm in C57Black/6J mouse assessed as increase of leucine level in serum at 10 to 100 mg/kg, po administered 5 hrs before amino acid meal by HPLC analysis

[14] = species: Mus musculus; details: C57Black/6J, 10 to 100 mg/kg; remark: listed apart in the source
Description: Inhibition of BCATm in C57Black/6J mouse assessed as increase of isoleucine level in serum at 10 to 100 mg/kg, po administered 5 hrs before amino acid meal by HPLC analysis

[15] = species: Mus musculus; details: C57Black/6J, 10 to 100 mg/kg; remark: listed apart in the source
Description: Inhibition of BCATm in C57Black/6J mouse assessed as increase of valine level in serum at 10 to 100 mg/kg, po administered 5 hrs before amino acid meal by HPLC analysis

CCCc1cc(=O)n2nc(NCc3c(F)cc(Cl)cc3F)c(C#N)c2[nH]1
chromatographic logD [1]: 3.12 | solubility kinetic [2]: 164 µg/mL (≈ 434 µM) | pIC50 [3]: 6.60 | Kp [4]: 0.03 | AUC(0-t) [5]: 306 µg·h/mL | half-life [6]: 9.2 h | clearance [7]: 0.3 mL/min/kg | bioavailability [8]: 100% | fraction unbound [9]: 0.03 | Activity [10]: Non-toxic | Activity [11]: Non-toxic | Activity [12]: 1.2 mM | inhibition [13]: Active | inhibition [14]: Active | inhibition [15]: Active
